Data set [1] has as its system HDACs (HeLa cell nuclear extracts). Briefly: HDAC enzymatic activity, Biomol Color de Lys system. In kind it is biochemical. The following applies: 1 hour, 25° C. The method in brief: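 HeLa nuclear extract incubated with serially diluted compound and […] artificial substrate in 50 mM Tris/Cl pH 8.0, 137 mM NaCl, 2.7 mM KCl, 1 mM MgCl2. Run 1 h at 25 °C, stopped with developer. Fluorescence read (ex 350-380, em 440-460 nm); IC50 from sigmoidal dose-response fit.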

The next data set deals with T1, PI3Kα (p110α/p85α) (Homo sapiens, UniProt P42336).
T1 construct: GST (N); made in house; host or cells: Baculovirus-infected Sf9 cells
Briefly: PI3Kα ADP-Glo assay. The following applies: 20 μM PIP2, 10 μM ATP, 30 minutes. The class given is biochemical. In outline:
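Recombinant full-length human GST-p110α/His-p85α, co-expressed in Sf9 cells, was incubated 30 min at room temperature with 20 μM PIP2 and 10 μM ATP. The buffer was 50 mM HEPES pH 7.4, 150 mM NaCl, 5 mM MgCl2, 1 mM DTT, 3 µM orthovanadate and 0.5% DMSO. ADP formed was detected by ADP-Glo luminescence.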

Molecules are shown by their SMILES.

T1 sequence (P42336 whole entry): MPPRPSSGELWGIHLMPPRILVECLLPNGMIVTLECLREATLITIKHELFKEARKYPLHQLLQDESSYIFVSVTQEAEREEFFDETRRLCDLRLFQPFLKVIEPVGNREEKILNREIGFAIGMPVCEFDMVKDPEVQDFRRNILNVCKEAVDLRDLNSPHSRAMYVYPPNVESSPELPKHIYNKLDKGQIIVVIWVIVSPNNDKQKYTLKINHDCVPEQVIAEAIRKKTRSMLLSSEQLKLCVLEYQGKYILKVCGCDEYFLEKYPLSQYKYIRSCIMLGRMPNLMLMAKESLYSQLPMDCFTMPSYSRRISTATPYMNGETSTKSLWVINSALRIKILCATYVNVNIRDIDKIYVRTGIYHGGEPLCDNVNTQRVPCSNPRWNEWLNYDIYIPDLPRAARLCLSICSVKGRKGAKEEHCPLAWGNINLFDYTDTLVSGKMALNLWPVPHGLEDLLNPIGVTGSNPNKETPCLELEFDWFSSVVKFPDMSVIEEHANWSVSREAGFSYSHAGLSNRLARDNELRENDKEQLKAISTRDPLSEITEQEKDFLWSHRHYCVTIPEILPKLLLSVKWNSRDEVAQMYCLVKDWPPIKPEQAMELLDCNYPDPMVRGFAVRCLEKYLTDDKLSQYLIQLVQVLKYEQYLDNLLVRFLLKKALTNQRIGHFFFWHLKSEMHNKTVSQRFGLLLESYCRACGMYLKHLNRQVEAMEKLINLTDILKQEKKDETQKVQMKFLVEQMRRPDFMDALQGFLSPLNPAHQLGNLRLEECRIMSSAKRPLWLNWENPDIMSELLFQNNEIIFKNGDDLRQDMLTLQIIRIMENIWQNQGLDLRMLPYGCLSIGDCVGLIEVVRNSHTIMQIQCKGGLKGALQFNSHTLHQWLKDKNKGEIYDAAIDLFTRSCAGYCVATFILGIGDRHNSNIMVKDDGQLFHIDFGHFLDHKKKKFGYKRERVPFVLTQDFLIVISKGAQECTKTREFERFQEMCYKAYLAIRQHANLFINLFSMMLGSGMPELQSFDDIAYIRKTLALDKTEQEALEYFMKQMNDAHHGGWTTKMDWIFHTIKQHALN
T1 sequence (P27986 whole entry partner): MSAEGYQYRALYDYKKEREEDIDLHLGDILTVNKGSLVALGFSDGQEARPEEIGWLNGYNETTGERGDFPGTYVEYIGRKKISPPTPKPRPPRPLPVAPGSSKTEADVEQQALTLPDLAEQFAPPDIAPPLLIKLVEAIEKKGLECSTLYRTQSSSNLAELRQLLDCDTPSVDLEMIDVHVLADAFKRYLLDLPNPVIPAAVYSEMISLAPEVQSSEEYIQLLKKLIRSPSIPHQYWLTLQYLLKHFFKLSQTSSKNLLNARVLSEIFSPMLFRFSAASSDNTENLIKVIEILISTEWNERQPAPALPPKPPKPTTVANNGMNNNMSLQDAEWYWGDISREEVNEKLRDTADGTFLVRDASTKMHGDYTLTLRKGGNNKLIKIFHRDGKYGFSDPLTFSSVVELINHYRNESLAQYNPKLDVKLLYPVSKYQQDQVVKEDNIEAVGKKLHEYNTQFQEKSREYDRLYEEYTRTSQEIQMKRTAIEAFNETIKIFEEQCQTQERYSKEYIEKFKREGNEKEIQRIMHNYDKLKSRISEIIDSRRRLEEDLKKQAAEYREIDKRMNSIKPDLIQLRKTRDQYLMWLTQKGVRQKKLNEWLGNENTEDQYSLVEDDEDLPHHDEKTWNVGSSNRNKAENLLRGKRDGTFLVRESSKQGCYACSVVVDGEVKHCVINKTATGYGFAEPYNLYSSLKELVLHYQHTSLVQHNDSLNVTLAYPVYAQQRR

Regarding `O=C(CCCCNCc1cc2nc(-c3cccc4[nH]ncc34)nc(N3CCOCC3)c2s1)NO` [Compound 42, 5-((2-(1H-indazol-4-yl)-4-morpholinothieno[3,2-d]pyrimidin-6-yl)methylamino)-N-hydroxypentanamide], the melting point (commonly the temperature of the solid-liquid transition) lay in the range of 145 to 147 °C. The IC50 (usually the concentration that inhibits the measured activity by half) in data set [1] was under 100 nM. The IC50 at PI3Kα (p110α/p85α) fell in the range of 1000 to 10000 nM.
As for `CN(Cc1cc2nc(-c3cncnc3)nc(N3CCOCC3)c2s1)c1ncc(C(=O)NO)cn1` [Compound 119, N-hydroxy-2-(methyl((4-morpholino-2-(pyrimidin-5-yl)thieno[3,2-d]pyrimidin-6-yl)methyl)amino)pyrimidine-5-carboxamide], the melting point lay within 159 to 160 °C. This compound also returned an IC50 in data set [1] of under 100 nM. For the same compound, the IC50 against PI3Kα (p110α/p85α) was under 100 nM.
With `Nc1ccc(-c2nc(N3CCOCC3)c3sc(C(=O)NCC4CCN(c5ncc(C(=O)NO)cn5)CC4)cc3n2)cc1` [Compound 307, 2-(4-Aminophenyl)-N-((1-(5-(hydroxycarbamoyl)pyrimidin-2-yl)piperidin-4-yl)methyl)-4-morpholinothieno[3,2-d]pyrimidine-6-carboxamide], the melting point was 232 to 238 °C. Also, in data set [1], the IC50 is under 100 nM. At PI3Kα (p110α/p85α), the IC50 is 100 to 1000 nM.
In the same order, the values of `CS(=O)(=O)N1CCN(Cc2cc3nc(-c4cccc5[nH]ncc45)nc(N4CCN(CCCCCCC(=O)NO)CC4)c3s2)CC1` [Compound 32, 7-(4-(2-(1H-indazol-4-yl)-6-((4-(methylsulfonyl)piperazin-1-yl)methyl)thieno[3,2-d]pyrimidin-4-yl)piperazin-1-yl)-N-hydroxyheptanamide] are 131 to 134 °C, 100 to 1000 nM and over 10000 nM.
The compound `CN(Cc1cc2nc(-c3cnc(CN)nc3)nc(N3CCOCC3)c2s1)c1ncc(C(=O)NO)cn1` [Compound 124, 2-(((2-(2-(aminomethyl)pyrimidin-5-yl)-4-morpholinothieno[3,2-d]pyrimidin-6-yl)methyl)(methyl)amino)-N-hydroxypyrimidine-5-carboxamide] showed a melting point of over 300 °C. In data set [1], this compound gave an IC50 of under 100 nM. The compound further showed an IC50 on PI3Kα (p110α/p85α) of under 100 nM.
On to `COc1ccc(-c2nc(N3CCOCC3)c3sc(NS(=O)(=O)c4cccc(/C=C/C(=O)NO)c4)cc3n2)cn1` [Compound 221, (E)-N-hydroxy-3-(3-(N-(2-(6-methoxypyridin-3-yl)-4-morpholinothieno[3,2-d]pyrimidin-6-yl)sulfamoyl)phenyl)acrylamide], for which the melting point was over 300 °C. The compound further had an IC50 in data set [1] of under 100 nM. Moreover, the IC50 on PI3Kα (p110α/p85α) is under 100 nM.
The compound `CS(=O)(=O)N1CCN(Cc2cc3nc(-c4ccc(OCCCCCCC(=O)NO)cc4)nc(N4CCOCC4)c3s2)CC1` [Compound 321, N-Hydroxy-7-(4-(6-((4-(methylsulfonyl)piperazin-1-yl)methyl)-4-morpholinothieno[3,2-d]pyrimidin-2-yl)phenoxy)heptanamide] registered a melting point of 143 to 145 °C. This compound gave an IC50 in data set [1] of 100 to 1000 nM. On PI3Kα (p110α/p85α), the IC50 lay in the range of 100 to 1000 nM.
With `CN(Cc1cc2nc(-c3ccc(S(C)(=O)=O)cc3)nc(N3CCOCC3)c2s1)c1ncc(C(=O)NO)cn1` [Compound 149, N-hydroxy-2-(methyl((2-(4-(methylsulfonyl)phenyl)-4-morpholinothieno[3,2-d]pyrimidin-6-yl)methyl)amino)pyrimidine-5-carboxamide], the melting point fell in the range of 206 to 208 °C. This compound displayed an IC50 in data set [1] of under 100 nM. Further, the IC50 at PI3Kα (p110α/p85α) was over 10000 nM.
In the same order, the values of `CN(Cc1cc2nc(-c3cc(F)c(N)c(F)c3)nc(N3CCOCC3)c2s1)c1ncc(C(=O)NO)cn1` [Compound 282, 2-(((2-(4-Amino-3,5-difluorophenyl)-4-morpholinothieno[3,2-d]pyrimidin-6-yl)methyl)(methyl)amino)-N-hydroxypyrimidine-5-carboxamide] are 190 to 193 °C, under 100 nM and 100 to 1000 nM.
Turning to `CC(O)c1ccc(F)c(-c2nc(N3CCOCC3)c3sc(CN(C)c4ncc(C(=O)NO)cn4)cc3n2)c1` (stereo not drawn) [Compound 295, 2-(((2-(2-Fluoro-5-(1-hydroxyethyl)phenyl)-4-morpholinothieno[3,2-d]pyrimidin-6-yl)methyl)(methyl)amino)-N-hydroxypyrimidine-5-carboxamide], the melting point was in the range of 230 to 235 °C. The IC50 in data set [1] was under 100 nM. The compound also had an IC50 on PI3Kα (p110α/p85α) of 100 to 1000 nM.
Compound `CS(=O)(=O)N1CCN(Cc2cc3nc(-c4ccc(OCCCCC(=O)NO)cc4)nc(N4CCOCC4)c3s2)CC1` [Compound 319, N-Hydroxy-5-(4-(6-((4-(methylsulfonyl)piperazin-1-yl)methyl)-4-morpholinothieno[3,2-d]pyrimidin-2-yl)phenoxy)pentanamide] gave a melting point of 140 to 144 °C. Also, the half-inhibitory concentration (IC50) in data set [1] was in the range of 100 to 1000 nM. Also, the IC50 against PI3Kα (p110α/p85α) was 100 to 1000 nM.
With `COc1ccc(-c2nc(N3CCOCC3)c3sc(C(C)(C)N(C)c4ncc(C(=O)NO)cn4)cc3n2)cn1` [Compound 251, N-Hydroxy-2-((2-(2-(6-methoxypyridin-3-yl)-4-morpholinothieno[3,2-d]pyrimidin-6-yl)propan-2-yl)(methyl)amino)pyrimidine-5-carboxamide], the melting point lay in the range of 175 to 178 °C. Further, the IC50 in data set [1] is under 100 nM. In addition, the IC50 on PI3Kα (p110α/p85α) fell in the range of 1000 to 10000 nM.
In the same order, the values of `CNc1ccc(-c2nc(N3CCOCC3)c3sc(C(C)(C)Nc4ncc(C(=O)NO)cn4)cc3n2)cn1` [Compound 240, N-Hydroxy-2-(2-(2-(6-(methylamino)pyridin-3-yl)-4-morpholinothieno[3,2-d]pyrimidin-6-yl)propan-2-ylamino)pyrimidine-5-carboxamide] are 200 to 205 °C, under 100 nM and under 100 nM.
In the same order, the values of `CCCN(Cc1cc2nc(-c3cccc4[nH]ncc34)nc(N3CCOCC3)c2s1)c1ncc(C(=O)NO)cn1` [Compound 84, 2-(((2-(1H-indazol-4-yl)-4-morpholinothieno[3,2-d]pyrimidin-6-yl)methyl)(propyl)amino)-N-hydroxypyrimidine-5-carboxamide] are 224 to 226 °C, under 100 nM and under 100 nM.
`CN(Cc1cc2nc(-c3ccc(C(N)=O)cc3)nc(N3CCOCC3)c2s1)c1ncc(C(=O)NO)cn1` [Compound 143, 2-(((2-(4-carbamoylphenyl)-4-morpholinothieno[3,2-d]pyrimidin-6-yl)methyl)(methyl)amino)-N-hydroxypyrimidine-5-carboxamide] came in with a melting point of 200 to 202 °C. The compound also had an IC50 in data set [1] of under 100 nM. Besides, the IC50 at PI3Kα (p110α/p85α) lay in the range of 100 to 1000 nM.
For the compound `CNCCOc1ccc(-c2nc(N3CCOCC3)c3sc(CN(C)c4ncc(C(=O)NO)cn4)cc3n2)cn1` [Compound 258, N-Hydroxy-2-(methyl((2-(6-(2-(methylamino)ethoxy)pyridin-3-yl)-4-morpholinothieno[3,2-d]pyrimidin-6-yl)methyl)amino)pyrimidine-5-carboxamide], the melting point is 170 to 175 °C. Also, the IC50 in data set [1] was under 100 nM. The IC50 on PI3Kα (p110α/p85α) was over 10000 nM.
With `CN(C)c1ccc(-c2nc(N3CCOCC3)c3sc(CN(C)c4ncc(C(=O)NO)cn4)cc3n2)cc1` [Compound 152, 2-(((2-(4-(dimethylamino)phenyl)-4-morpholinothieno[3,2-d]pyrimidin-6-yl)methyl)(methyl)amino)-N-hydroxypyrimidine-5-carboxamide], the melting point was 208 to 210 °C. In addition, the half-inhibitory concentration (IC50) in data set [1] is under 100 nM. The same compound had an IC50 against PI3Kα (p110α/p85α) of over 10000 nM.
Taken in the same sequence, the figures for `CN(Cc1cc2nc(-c3cccc4[nH]ncc34)nc(Nc3ccccn3)c2s1)c1ncc(C(=O)NO)cn1` [Compound 168, 2-(((2-(1H-indazol-4-yl)-4-(pyridin-2-ylamino)thieno[3,2-d]pyrimidin-6-yl)methyl)(methyl)amino)-N-hydroxypyrimidine-5-carboxamide] were 200 to 203 °C, under 100 nM and 1000 to 10000 nM.
`O=C(CCCCCCNCc1cc2nc(-c3cccc4[nH]ncc34)nc(N3CCOCC3)c2s1)NO` [Compound 44, 7-((2-(1H-indazol-4-yl)-4-morpholinothieno[3,2-d]pyrimidin-6-yl)methylamino)-N-hydroxyheptanamide]: the melting point fell in the range of 188 to 190 °C. Moreover, the IC50 in data set [1] lay within 100 to 1000 nM. Further, the IC50 at PI3Kα (p110α/p85α) is under 100 nM.
The compound `COc1ncc(-c2nc(N3CCOCC3)c3sc(C(C)(C)Nc4ncc(C(=O)NO)cn4)cc3n2)cn1` [Compound 263, N-Hydroxy-2-(2-(2-(2-methoxypyrimidin-5-yl)-4-morpholinothieno[3,2-d]pyrimidin-6-yl)propan-2-ylamino)pyrimidine-5-carboxamide] came in with a melting point of 202 to 207 °C. In data set [1], this compound came in with an IC50 of under 100 nM. The compound also showed an IC50 at PI3Kα (p110α/p85α) of under 100 nM.
Take `CC(C)CN(Cc1cc2nc(-c3cccc4[nH]ncc34)nc(N3CCOCC3)c2s1)c1ncc(C(=O)NO)cn1` [Compound 93, 2-(((2-(1H-indazol-4-yl)-4-morpholinothieno[3,2-d]pyrimidin-6-yl)methyl)(isobutyl)amino)-N-hydroxypyrimidine-5-carboxamide]: the melting point was in the range of 196 to 198 °C. In addition, the IC50 in data set [1] is 100 to 1000 nM. At PI3Kα (p110α/p85α), this compound gave an IC50 of 100 to 1000 nM.

These data come from US20130102595A1 (Curis, Inc., priority 2011, published 2013).
